The source of these data is ChEMBL document CHEMBL1129205, “Small peptide inhibitors of 47 mediated MAdCAM-1 adhesion to lymphocytes” (Bioorg Med Chem Lett, 1996).

As usually defined, the IC50 is the midpoint of a concentration-inhibition curve. In general, Inhibition refers to the share of the control response that was lost under treatment. The low end stands for little suppression, the high end for strong suppression. What is called inhibition is the relative decrease from the control value, in per cent. Read a low inhibition as little suppression.

The subject of the first experiment is HuT78. Briefly: Compound was tested for inhibition of MAdCAM-1/alpha-4 beta-7 mediated cell adhesion to T-cell lymphoma, HUT78 cells. The format is functional, cell-based. The conditions noted are these: Homo sapiens.
`CC(C)C[C@H](NC(=O)[C@H](CO)NC(=O)[C@@H](NC(=O)[C@H](CC(=O)O)NC(=O)[C@H](CC(C)C)NC(=O)C(C1CCCCC1)C1CCCCC1)[C@@H](C)O)C(N)=O`: the IC50 is over 1000 µM.
In the case of `CC(C)C[C@H](NC(=O)[C@H](CO)NC(=O)[C@@H](NC(=O)[C@H](CC(=O)O)NC(=O)[C@H](CC(C)C)NC(=O)CCCc1ccc2ccc3cccc4ccc1c2c34)[C@@H](C)O)C(N)=O`, inhibition was half-maximal at 5 µM (IC50). This lies in the single-digit micromolar range.
In the case of `CC(C)C[C@H](NC(=O)[C@H](CO)NC(=O)[C@@H](NC(=O)[C@H](CC(=O)O)NC(=O)[C@H](CC(C)C)NC(=O)C(c1ccccc1)c1ccccc1)[C@@H](C)O)C(N)=O`, 13.4 µM corresponded to half-maximal inhibition (IC50).
For `CC(C)C[C@H](NC(=O)[C@H](CO)NC(=O)[C@@H](NC(=O)[C@H](CC(=O)O)NC(=O)[C@H](CC(C)C)NC(=O)Cc1ccccc1)[C@@H](C)O)C(N)=O`, the half-maximal inhibitory concentration (IC50) was over 1000 µM.
In turn, `CC(C)C[C@H](NC(=O)[C@H](CO)NC(=O)[C@@H](NC(=O)[C@H](CC(=O)O)NC(=O)[C@H](CC(C)C)NC(=O)C1c2ccccc2-c2ccccc21)[C@@H](C)O)C(N)=O` came in with a concentration for half-maximal inhibition (IC50) of 18.6 µM.
In turn, `CCCC(CCC)C(=O)N[C@@H](CC(C)C)C(=O)N[C@@H](CC(=O)O)C(=O)N[C@H](C(=O)N[C@@H](CO)C(=O)N[C@@H](CC(C)C)C(N)=O)[C@@H](C)O` came in with a half-maximal inhibitory concentration (IC50) of over 1000 µM.

System in the next experiment: not listed separately
Description: Inhibition of MAdCAM-1/alpha-4 beta7-mediated cell adhesion to T-cell lymphoma, HUT78 cells at 500 uM.
Conditions: not given
Type of experiment: functional.
Turning to `CC(=O)N[C@@H](CCCN=C(N)N)C(=O)NCC(=O)N[C@@H](CC(C)C)C(=O)N[C@@H](CC(=O)O)C(=O)N[C@H](C(=O)N[C@@H](CO)C(=O)N[C@@H](CC(C)C)C(=O)NCC(N)=O)[C@@H](C)O` (stereo in doubt; 4), the Inhibition amounted to 75%.
`CC(=O)N[C@@H](CCCN=C(N)N)C(=O)NCC(=O)N[C@@H](CC(C)C)C(=O)N[C@@H](CC(=O)O)C(=O)N[C@H](C(=O)N[C@@H](CO)C(=O)N[C@@H](CC(C)C)C(=O)NCC(N)=O)[C@@H](C)O` (stereo in doubt; 10) registered an Inhibition of 36%.

Still in this experiment, the particulars now being: HuT78.
Ac-WRGLDTSLGS-NH2 yielded an inhibition at 500 µM of 71%.
The compound Ac-GLDTSLGS-NH2 came in with an inhibition at 500 µM of 28%.
Still for that read-out and setting: the result for Ac-LNTSL-NH2 reads 0%.
The compound `CC(C)C[C@H](NC(=O)[C@H](CO)NC(=O)[C@@H](NC(=O)[C@H](CC(=O)O)NC(=O)[C@H](CC(C)C)NC(=O)CCCc1ccc2ccc3cccc4ccc1c2c34)[C@@H](C)O)C(N)=O` showed an inhibition at 500 µM of 5%.
With Ac-DTSLGSVQ-NH2, the inhibition at 500 µM stood at 0%.
Ac-HWRGLDTSLGSV-NH2 showed an inhibition at 500 µM of 71%.
With Ac-RVHWAGLD-NH2, at 500 µM the inhibition was 0%.
Turning to `CC(C)C[C@H](NC(=O)[C@H](CO)NC(=O)[C@@H](NC(=O)[C@H](CC(=O)O)NC(=O)[C@H](CC(C)C)NC(=O)C(c1ccccc1)c1ccccc1)[C@@H](C)O)C(N)=O`, the inhibition at 500 µM amounted to 13.4%.
Compound `CC(C)C[C@H](NC(=O)[C@H](CO)NC(=O)[C@@H](NC(=O)[C@H](CC(=O)O)NC(=O)[C@H](CC(C)C)NC(=O)C1c2ccccc2-c2ccccc21)[C@@H](C)O)C(N)=O` yielded an inhibition at 500 µM of 18.6%.
For Ac-LYTSL-NH2, the inhibition at 500 µM was 0%.
Same read-out and setting: the result for Ac-ADTSL-NH2 reads 3%; that for Ac-LATSL-NH2, 0%.
For Ac-AAASL-NH2, the inhibition at 500 µM was 0%.
As for Ac-LDTSLGSV-NH2, at 500 µM the inhibition was 16%.
On the same count and under the same terms, the result for Ac-HWRGLDTS-NH2 reads 46%.
In the case of `CC(=O)N[C@@H](CC(C)C)C(=O)N[C@H](CC(=O)O)C(=O)N[C@H](C(=O)N[C@@H](CO)C(=O)N[C@@H](CC(C)C)C(N)=O)[C@@H](C)O`, the inhibition at 500 µM was determined as 0%.
Turning to Ac-WRGLDTSL-NH2, the inhibition at 500 µM was 52%.
The compound Ac-RVHWRGLDTSLGSVQ-NH2 gave an inhibition at 500 µM of 88%.
As to Ac-VHWRGLDT-NH2, at 500 µM the inhibition was 48%.
